# Data reported in patent US20240043435A1, “TYK-2 INHIBITOR” (BEIGENE, LTD., priority 2020, published 2024).
# Key:
# [1] = tested on: pSTAT5/GM-CSF; experiment: pSTAT5/GM-CSF cellular assay (JAK2 selectivity); format: cell-based
# [2] = tested on: JAK2, TYK2/p-STAT4 (Tyr693) activated by IL-12 in NK-92 cell line; experiment: IL-12-JAK2, TYK2/p-STAT4 (Tyr693) inhibition IC50 cellular assay; format: cell-based; conditions: for Selectivity fold (TYK2/JAK2): Cellular assay, pSTAT5/GM-CSF IC50 vs pSTAT4/IL-12 IC50; for IC50: NK92, Cellular assay, read-out: pSTAT4/IL-12 IC50
# Excerpt: Assay C: IL-12-JAK2, TYK2/p-STAT4 (Tyr693) Inhibition IC50 Cellular Assay
# To evaluate the inhibition effect of compounds disclosed herein on JAK2, TYK2/p-STAT4 (Tyr693) activated by IL-12 in NK-92 cell line, NK-92 cells were collected and washed 3 times by DPBS and resuspended in MEM-α (GIBCO, Cat #12561056) with 10% FBS (Gibco, Cat #10099, Lot #1891605), without IL-2 (R&D systems, Cat #202-IL), starved overnight. Cells were collected and resuspended in 1640 medium (phenol red free, Gibco, Cat #11835-030) with 0.1% BSA, and 12.5 μl/5×10^4/well cell suspension were seeded to the 96-well plate (Corning, Cat #3799). Then cells were treated with compounds diluted in 0.2% DMSO 1640 medium, at 37° C., 1 h. Dilution is done according to the following protocol: (1) make 500× compounds solution in DMSO from 5 mM by 4-fold dilution, total 8 doses were included; (3) make 2× compounds solution in assay medium by transferring 0.5 μl serial 500× stock solution into 125 μl assay medium; (4) 15 μl of 2× serial solution is added to cells and incubate at 37° C. for 1 h, the final compound conc. is 10000, 2500, 625, 156.25, 39, 9.8, 2.4 and 0.61 nM, respectively. After 1 h, cells were treated with 2.5 μl medium containing IL-12 at 37° C. (R&D systems, Cat #219-IL-005, final conc. 40 ng/ml), 30 min. Following cells were lysed with 7.5 μl lysis buffer at RT, shaking on shaker for 1 h. 10 μL of cell lysate were transferred to a PE 384-well Proxiplate detection plate, and 5 μL of pre-mixed Alphascreen beads were added to each well. Covered the plate with a plate sealer, span 1000 rpm for 1 min, mix, Incubated overnight at room temperature. Read on BMG PheraStar with Alphascreen protocol. IC 50 values were calculated by fitting dependent data to the four-parameter logistic model using dotmatics software. The assay was performed by using AlphaLISA SureFire Ultra p-STAT4 (Tyr693) Assay Kit—High Volume (PE, Cat #ALSU-PST4-A-HV).
# [3] = target: T1, TYK2-JH2 (aa 575-869, in-house) protein (Homo sapiens, UniProt P29597); experiment: TYK2-JH2 biochemical assay (HTRF probe displacement); format: binding; conditions: Biochemical assay; read-out: TYK2-JH2 IC50
# T1 construct: TYK2-JH2 (aa 575-869, in-house) protein; made in house
# Method in brief: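 HTRF probe-displacement format: compound dilutions (10 points, 5-fold, from 500 uM in DMSO at 500×) were combined with 0.2 nM TYK2-JH2 protein for 0.5 h at room temperature in HEPES pH 7.5 buffer with MgCl2, BSA, DTT and Brij-35. Percent inhibition came from the 615/665 nm fluorescence ratio, fitted to a four-parameter logistic for IC50.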
# T1 sequence (P29597 575-869): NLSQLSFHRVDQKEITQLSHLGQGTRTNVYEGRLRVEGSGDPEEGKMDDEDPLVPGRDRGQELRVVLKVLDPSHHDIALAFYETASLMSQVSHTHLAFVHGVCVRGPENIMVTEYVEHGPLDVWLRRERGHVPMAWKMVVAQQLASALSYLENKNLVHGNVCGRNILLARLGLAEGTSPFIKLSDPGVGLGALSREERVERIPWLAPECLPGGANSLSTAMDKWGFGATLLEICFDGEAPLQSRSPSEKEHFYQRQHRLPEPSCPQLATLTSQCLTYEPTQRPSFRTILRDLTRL
SMILES,IC50 [1] [nM],IC50 [2] [nM],IC50 [3] [nM],Selectivity fold (TYK2/JAK2) [2] [fold]
"COc1ccc(-c2cnc(NC(C)=O)cc2Nc2cc(OCC3CC3)cc(S(C)(=O)=O)n2)nn1 [Example A25, N-(4-((4-(cyclopropylmethoxy)-6-(methylsulfonyl)pyridin-2-yl)amino)-5-(6-methoxypyridazin-3-yl)pyridin-2-yl)acetamide]",> 10000,0.596,0.027,>16778
"COc1ccc(-c2cnc(NC(C)=O)cc2Nc2cc(OC(C)C)cc(S(C)(=O)=O)n2)nn1 [Example A26, N-(4-((4-isopropoxy-6-(methylsulfonyl)pyridin-2-yl)amino)-5-(6-methoxypyridazin-3-yl)pyridin-2-yl)acetamide]",> 10000,0.405,0.032,>24691
"COc1ccc(-c2cnc(NC(C)=O)cc2Nc2cc(N3C[C@@H](C)O[C@@H](C)C3)cc(S(C)(=O)=O)n2)nn1 [Example A27, N-(4-((4-((2S,6R)-2,6-dimethylmorpholino)-6-(methylsulfonyl)pyridin-2-yl)amino)-5-(6-methoxypyridazin-3-yl)pyridin-2-yl)acetamide]",> 10000,2.1,0.034,>4761
"COc1ccc(-c2cnc(NC(C)=O)cc2Nc2nc(S(C)(=O)=O)cc3c2OCO3)nn1 [Example A28, N-(5-(6-methoxypyridazin-3-yl)-4-((6-(methylsulfonyl)-[1,3]dioxolo[4,5-c]pyridin-4-yl)amino)pyridin-2-yl)acetamide]",> 10000,1.52,0.033,>6578
"CC(=O)Nc1cc(Nc2cc(C)cc(S(C)(=O)=O)n2)c(-c2ccc(OC(C)C)nn2)cn1 [Example A29, N-(5-(6-isopropoxypyridazin-3-yl)-4-((4-methyl-6-(methylsulfonyl)pyridin-2-yl)amino)pyridin-2-yl)acetamide]",> 10000,0.452,0.042,>22123
"CC(=O)Nc1cc(Nc2cccc(S(N)(=O)=O)n2)c(-c2ccccn2)cn1 [Example B4, N-(4′-((6-sulfamoylpyridin-2-yl)amino)-[2,3′-bipyridin]-6′-yl)acetamide]",> 10000,2.53,0.019,>3952
"CC(=O)Nc1cc(Nc2cc(OCCO)cc(S(C)(=O)=O)n2)c(-c2ccccn2)cn1 [Example B7, N-(4′-((4-(2-hydroxyethoxy)-6-(methylsulfonyl)pyridin-2-yl)amino)-[2,3′-bipyridin]-6′-yl)acetamide]",> 10000,5.58,0.016,>1792
"COCc1ccnc(-c2cnc(NC(C)=O)cc2Nc2cccc(S(C)(=O)=O)n2)c1 [Example B8, N-(4-(methoxymethyl)-4′-((6-(methylsulfonyl)pyridin-2-yl)amino)-[2,3′-bipyridin]-6′-yl)acetamide]",> 10000,1.68,0.047,>5952
"CC(=O)Nc1cc(Nc2cccc(S(C)(=O)=O)n2)c(-c2ccc(N3CCOC(C)(C)C3)cn2)cn1 [Example B12, N-(5-(2,2-dimethylmorpholino)-4′-((6-(methylsulfonyl)pyridin-2-yl)amino)-[2,3′-bipyridin]-6′-yl)acetamide]",610,0.74,0.034,824

# Second part, led by results:
IC50 [1] [nM],IC50 [2] [nM],IC50 [3] [nM],SMILES,Selectivity fold (TYK2/JAK2) [2] [fold]
4290,0.513,0.03,"CC(=O)Nc1cc(Nc2cc(OC(C)C)cc(S(C)(=O)=O)n2)c(-c2ccc(N3CC4CC3CO4)cn2)cn1 (stereo not shown) [Example B16, N-(5-(2-oxa-5-azabicyclo[2.2.1]heptan-5-yl)-4′-((4-isopropoxy-6-(methylsulfonyl)pyridin-2-yl)amino)-[2,3′-bipyridin]-6′-yl)acetamide]",8366
> 10000,2.05,0.035,"CC(=O)Nc1cc(Nc2cccc(S(C)(=O)=O)n2)c(-c2cc(Cl)c(C(C)(C)O)cn2)cn1 [Example B17, N-(4-chloro-5-(2-hydroxypropan-2-yl)-4′-((6-(methylsulfonyl)pyridin-2-yl)amino)-[2,3′-bipyridin]-6′-yl)acetamide]",>4878
> 10000,1.05,0.036,"COCC1CN(c2ccc(-c3cnc(NC(C)=O)cc3Nc3cc(OC(C)C)cc(S(C)(=O)=O)n3)nc2)CCO1 (stereo not shown) [Example B18, N-(4′-((4-isopropoxy-6-(methylsulfonyl)pyridin-2-yl)amino)-5-(2-(methoxymethyl)morpholino)-[2,3′-bipyridin]-6′-yl)acetamide]",>9523
2490,0.443,0.047,"CC(=O)Nc1cc(Nc2cc(C)cc(S(C)(=O)=O)n2)c(-c2ccc(O[C@H]3CCOC3)cn2)cn1 [Example B21, (S)-N-(4′-((4-methyl-6-(methylsulfonyl)pyridin-2-yl)amino)-5-((tetrahydrofuran-3-yl)oxy)-[2,3′-bipyridin]-6′-yl)acetamide]",5620
2490,12.6,0.025,"CC(=O)Nc1cc(Nc2cc(OCCO)cc(S(C)(=O)=O)n2)c(-c2ccc(OC3CCOC3)cn2)cn1 (stereo not shown) [Example B22, N-(4′-((4-(2-hydroxyethoxy)-6-(methylsulfonyl)pyridin-2-yl)amino)-5-((tetrahydrofuran-3-yl)oxy)-[2,3′-bipyridin]-6′-yl)acetamide]",197
1000,0.307,0.04,"CC(=O)Nc1cc(Nc2cccc(S(C)(=O)=O)n2)c(-c2ccc(OC3CCOC3)cn2)cn1 (stereo not shown) [Example B23, N-(4′-((6-(methylsulfonyl)pyridin-2-yl)amino)-5-((tetrahydrofuran-3-yl)oxy)-[2,3′-bipyridin]-6′-yl)acetamide]",3260
563,0.881,0.027,"CC(=O)Nc1cc(Nc2cc(C)cc(S(C)(=O)=O)n2)c(-c2ccc(N3C[C@@H](C)O[C@@H](C)C3)cn2)cn1 [Example C1, N-(5-(cis-2,6-dimethylmorpholino)-4′-((4-methyl-6-(methylsulfonyl)pyridin-2-yl)amino)-[2,3′-bipyridin]-6′-yl)acetamide]",639
962,0.312,0.026,"CC(=O)Nc1cc(Nc2cccc(S(C)(=O)=O)n2)c(-c2ccc(N3C[C@@H](C)O[C@@H](C)C3)cn2)cn1 [Example C2, N-(5-((cis)-2,6-dimethylmorpholino)-4′-((6-(methylsulfonyl)pyridin-2-yl)amino)-[2,3′-bipyridin]-6′-yl)acetamide]",3083
> 10000,5.81,0.032,"CC(=O)Nc1cc(Nc2cccc(S(C)(=O)=O)c2)c(-c2ccc(N3C[C@@H](C)O[C@@H](C)C3)cn2)cn1 [Example C3, N-(5-((cis)-2,6-dimethylmorpholino)-4′-((3-(methylsulfonyl)phenyl)amino)-[2,3′-bipyridin]-6′-yl)acetamide]",>1721
> 10000,4.35,0.034,"CC(=O)Nc1cc(Nc2cc(OC(C)C)cc(S(C)(=O)=O)n2)c(-c2ccc(N3C[C@@H](C)O[C@@H](C)C3)cn2)cn1 [Example C4, N-(5-((cis)-2,6-dimethylmorpholino)-4′-((4-isopropoxy-6-(methylsulfonyl)pyridin-2-yl)amino)-[2,3′-bipyridin]-6′-yl)acetamide]",>2298
